This is an account of results in publication PMC3359160, “Dipeptidyl peptidase IV, aminopeptidase N and DPIV/APN-like proteases in cerebral ischemia” (Journal of Neuroinflammation, 2012).

Molecules are shown by their SMILES.

Experiment [1] concerns eMCAO-induced infarct volume. Description: Effect of protease inhibitors on infarct volumes after eMCAO (transient focal cerebral ischemia). The format is in vivo, male Sprague-Dawley rats. The conditions noted are these: rat, icv f.c. 10 μM; for effect on striatal lesion sizes / effect on eMCAO-induced infarct volumes in ipsilateral cortices: 7 days post eMCAO; for reduction of eMCAO-induced infarct volume in ipsilateral cortex compared to vehicle: mean ± S.E.M. The method, then:
Studies were performed on male Sprague-Dawley rats (250-280 g) obtained from Harlan Winkelmann (Borchen, Germany). Animals were maintained under constant environmental conditions with an ambient temperature of 21 ± 2°C and relative humidity of 40%. They were housed with a 12-h light-dark cycle, food and water were given ad libitum. […] Animals were anesthetized with halothane in a mixture of nitrous oxide/oxygen (70:30) and maintained with 2-3% halothane during the following procedures: rats were placed in a Kopf stereotaxic frame and further anesthetized via a nose cone. For the induction of eMCAO, a burr hole (1 mm diameter) was drilled into the skull (coordinates: anterior 0.50 mm from bregma, lateral 5.2 mm to […]). After careful opening of the dura, a 29-gauge cannula was lowered 7.5 mm below the dura according to the rat brain atlas of Paxinos and Watson. […] After further 5 min, the cannula was slowly withdrawn. Throughout the operation procedure, rats were kept at 37 ± 0.5°C using a thermostatically controlled heating blanket attached to a rectal thermometer. The animals were then placed under a heating lamp to maintain normothermia until recovery. In order to perform the icv application of different protease inhibitors under halothane anesthesia, a second burr hole was drilled into the skull (coordinates: posterior 0.80 mm from bregma, lateral 1.5 mm to […]). Then, a 29-gauge cannula was lowered 4.5 mm below the dura. The icv injection of IPC1755 (2 μl of a 10 mmol/l PBS/DMSO solution, pH 7.4, f.c. 10 μM) was performed according to one of the following time schedules; […] According to legal requirements of the German animal law, animals were kept under anesthesia during each drug injection. Control rats were treated in the same way, except that the corresponding vehicle solution instead of the drug was injected. Thus, potential protective effects of halothane can be excluded. Rats were maintained at 37 ± 0.5°C throughout the operation procedures. In parallel, the body temperature was monitored using a rectal temperature sensor. Subsequently, the animals were placed into an incubator to maintain normothermia until recovery from anesthesia and then returned into their home cage. After a survival time of 7 days after eMCAO, animals were anesthetized by intraperitonial injection of pentobarbital and transcardially perfusion-fixed with saline followed by 4% paraformaldehyde in 0.1 M PBS (pH 7.4). Brains were then removed carefully, post-fixed in the same fixative for 2 h, and placed in a rodent brain matrix (rat, ASI Instruments, Warren, MI, USA). 1-mm coronal brain slices were cut with a razor blade at 14 predetermined anterior-posterior levels. After cryoprotection in 30% sucrose, slices were rapidly frozen in isopentane and stored at -80°C. Four to five cryostat sections (30 μm) from each brain slice were cut in a cryo microtome and stained with toluidine blue. The extent of cortical and striatal damage following ischemic injury was documented with microphotographic images from Nissl-stained slices showing the anterior-posterior level according to the brain atlas of Paxinos and Watson. The volumes of cortical and striatal infarct lesions were measured at eight predetermined anterior-posterior levels by an operator blinded to the group composition. Three-dimensional lesion sizes were calculated by integration of two-dimensional lesion sizes at each stereotactic level and the distances between the various levels. Image analysis was performed with an Eclipse TE 3000 microscope (Nikon, Düsseldorf, Germany), equipped with a 4x objective, and the Lucia software package (Version 4.2.1., Nikon). Data were statistically analyzed by non-paired Student's t-test and given as mean ± S.E.M.

A further experiment has as its system DPIV. Further details: method as in Patent EP09169269. The conditions noted are these: ref Patent EP09169269; cited from earlier work.
Another experiment relates to APN. On the set-up: method as in Patent EP09169269. Particulars: ref Patent EP09169269; cited from earlier work.
The test system of a further experiment is cAAP. Further details: method as in Patent EP09169269. The conditions noted are these: ref Patent EP09169269; cited from earlier work.
Another experiment relates to DPII. Further details: method as in Patent EP09169269. Particulars: ref Patent EP09169269; cited from earlier work.
The next experiment deals with DP8/9. Further details: method as in Patent EP09169269. Particulars: ref Patent EP09169269; cited from earlier work.
The subject of the next experiment is mononuclear cells. On the set-up: method as in Patent EP09169269. Particulars: ref Patent EP09169269; read-out: IC50, proliferation of mononuclear cells; cited from earlier work.
The next experiment concerns T cells. On the set-up: method as in Patent EP09169269. Particulars: ref Patent EP09169269; read-out: IC50, proliferation of T cells; cited from earlier work.
[2] abbreviates: in parallel to eMCAO and 6 h and 24 h post insult, analyzed 7 days post eMCAO.
[3] abbreviates: in parallel to eMCAO and 6 h and 24 h post insult.

Regarding `CCCCCCCCCCCCCCCC(=O)OC(C(=O)NCC(C)(C)CNC(=O)CC(N)Cc1cc(F)ccc1F)C(N)Cc1ccccc1` (stereo not shown) [IPC1755], the “effect on striatal lesion sizes” value in experiment [1] (all three time schedules (Figure 7C columns b-d)) is “did not affect striatal lesion sizes”. Also, the “cortical lesion size, % of control damage of vehicle-treated animals” value in experiment [1] (exclusively 6 and 24 h post eMCAO, analyzed 7 days post eMCAO) stood at 107.5 ± 12.8%. Moreover, the “reduction of eMCAO-induced infarct volume in ipsilateral cortex compared to vehicle” value in experiment [1] (setting [2]) worked out at 48.8 ± 7.9%. For the same compound, the IC50 in the experiment on DPIV is 0.06 µM; with APN, 0.03 µM; with cAAP it was 0.02 µM; with DPII it was 166 µM; with DP8/9, 85 µM; with mononuclear cells it was 36 µM. Moreover, the IC50 in the experiment with T cells was 34 µM.
As for `CC[C@@H](C)[C@H](N)C(=O)N1Cc2ccccc2C1.Cl` [selective DP8/9 inhibitor, (2S,3R)-2-(2-amino-3-methyl-1-oxopentan-1-yl)-1,3-dihydro-2H-isoindole hydrochloride], in experiment [1] (setting [3]), the “effect on eMCAO-induced infarct volumes in ipsilateral cortices” value is recorded as “did not decrease” and the “effect on striatal lesion sizes” value is listed as “neither sitagliptin nor selective DPII or DP8/9 inhibition affected”.
For `NCC[C@H](N)C(=O)N1CCCCC1` [selective DPII inhibitor, L-2,4-Diaminobutyrylpiperidinamide] the same measures were “did not decrease” and “neither sitagliptin nor selective DPII or DP8/9 inhibition affected”.
As for `N[C@@H](CC(=O)N1CCn2c(nnc2C(F)(F)F)C1)Cc1cc(F)c(F)cc1F` [sitagliptin, (R)-3-Amino-1-[3-(trifluormethyl)-5,6,7,8-tetrahydro[1,2, 4]triazol[4,3-a]pyrazin-7-yl]-4-(2,4,5-trifluorphenyl)butan-1-on], the “effect on striatal lesion sizes” value in experiment [1] (setting [3]) is recorded as “neither sitagliptin nor selective DPII or DP8/9 inhibition affected”. Besides, the “reduction of eMCAO-induced infarct volume in ipsilateral cortex compared to vehicle” value in experiment [1] (setting [2]) came out at 21.1 ± 5.8%.
